From publication PMC11921344, “Antimicrobial peptide DiPGLa-H exhibits the most outstanding anti-infective activity among the PGLa variants based on a systematic comparison” (Applied and Environmental Microbiology, 2025)
Where two headings read alike, the source gives them in different places. Where no end group is shown, it is not given here.

Assays:
[1] = test system: A. baumannii ATCC19606; type: cell-based, Acinetobacter baumannii; details: for MBC A. baumannii ATCC19606: ATCC19606, 4 h; for MIC A. baumannii ATCC19606: ATCC19606, 24 h
Experimental: (§1) The antibacterial activity was evaluated using a standard MIC and MBC assay according to the National Committee for Clinical Laboratory Standards (NCCLS). MIC, MBC assay, and time-kill curves for the optimal peptide are provided in the Supplementary Materials.
(§2) Antimicrobial Activity Assays. The antibacterial activity of the peptides was determined using a method designed from the National Committee for Clinical Laboratory Standards (NCCLS) in the United States. All the strains used in the experiment are preserved in the laboratory. Briefly, log phase bacterial cells were diluted in MHB to a final concentration of 0.5-1x10^5 CFU/mL. Subsequently, 50μL of different concentrations of polypeptides were incubated with 50 μL of bacterial solution in sterile 96-well plates. In the minimum inhibitory concentration (MIC) assay, the plate was incubated at 37°C for 24 h, and the minimum inhibitory concentration (MIC) was determined by the absorbance at 492 nm of the microplate reader, and the minimum inhibitory concentration (MIC) inhibited 95% of bacteria grow. Determination of minimum bactericidal concentration: the plate was incubated at 37°C for 4 hours, 50 μL of the mixture was taken out of each well, diluted with an appropriate amount of PBS, smeared on the agar plate, and cultured overnight. Colonies were counted and the initial CFU/well was retrospectively calculated the following day. The lowest concentration of peptide that kills 99.9% of bacterial cells is the minimum bactericidal concentration (µM), Each test was replicated at least 3 times.

[2] = test system: P. aeruginosa ATCC27853; type: cell-based, Pseudomonas aeruginosa; details: for MBC P. aeruginosa ATCC27853: ATCC27853, 4 h; for MIC P. aeruginosa ATCC27853: ATCC27853, 24 h
Experimental: as §1, §2

[3] = test system: E. coli ATCC 25922; details: cited from earlier work
Experimental: (§3) PGLa, an amphibian 21-residue cationic AMP, with a net charge of +4, was found in the skin of the toad Xenopus laevis ([6]). The minimum inhibitory concentration (MIC) of PGLa against Escherichia coli 25922 and S. aureus 25923 were 10–50 μg/mL and 50–100 μg/mL, respectively ([6]). […] The rep ...

[4] = test system: S. aureus ATCC 25923; details: cited from earlier work
Experimental: as §3

[5] = test system: Gram-negative bacteria; assay: Geometric mean MIC and therapeutic index, Gram-negative; type: cell-based; details: geometric mean of the peptide MICs against Gram-negative strains
Experimental: as §1, §2

[6] = test system: E. coli ATCC25922; type: cell-based, Escherichia coli; details: for MBC E. coli ATCC25922: ATCC25922, 4 h; for MIC E. coli ATCC25922: ATCC25922, 24 h
Experimental: as §1
as §2, with “[…],” for “the plate was incubated at 37°C for 24 h,”

[7] = test system: S. aureus Mu50; type: cell-based, Staphylococcus aureus MRSA; details: for MBC S. aureus Mu50: Mu50, 4 h; for MIC S. aureus Mu50: Mu50, 24 h
Experimental: as §1, §2

[8] = test system: S. aureus ATCC29213; type: cell-based, Staphylococcus aureus; details: for MBC S. aureus ATCC29213: ATCC29213, 4 h; for MIC S. aureus ATCC29213: ATCC29213, 24 h
Experimental: as §1, §2

[9] = test system: E. coli K88; type: cell-based, Escherichia coli
Experimental: as §1
as §2, with “The lowest concentration of peptide that kills 99.9% of bacterial cells is the minimum bactericidal concentration (µM), Each test was replicated at least 3 times.” left out

[10] = test system: all tested bacteria; assay: Geometric mean MIC and therapeutic index, all strains; type: cell-based; details: for GMMIC All: geometric mean of the peptide MICs against all strains; for reduced antibacterial efficacy compared with DiPGLa-H: from MICs of Table 2
Experimental: as §1, §2

[11] = test system: Gram-positive bacteria; assay: Geometric mean MIC and therapeutic index, Gram-positive; type: cell-based; details: geometric mean of the peptide MICs against Gram-positive strains
Experimental: as §1, §2

[12] = test system: S. aureus; details: cited from earlier work
Experimental: as §3

[13] = test system: E. coli; details: cited from earlier work
Experimental: as §3

[14] = test system: Helicobacter pylori; details: cited from earlier work
Source text: (§4) To date, there is a lack of systematic comparative study on the bacteriostatic activity and biosafety of PGLa and its variants, which precludes the determination of the variant with the highest potential for application. It has been more than 30 years since the discovery of PGLa in 1983 to the recent discovery of new PGLa-derived peptides.

[15] = test system: Acinetobacter nosocomial Ab113; details: cited from earlier work
Source text: as §4

[16] = test system: E. coli K88 outer membrane; assay: Outer membrane integrity assay (NPN uptake); type: cell-based, Escherichia coli; details: 4 µM peptide; relative to 10 µg/mL polymyxin B = 100%
Experimental: (§5) The outer and inner membrane integrity of bacterial cells treated with peptides was assessed using NPN and PI staining, respectively. Full details are provided in the Supplementary Materials.
Membrane permeabilization. Outer membrane integrity assay. The fluorescent probe NPN (Sigma-Aldrich, catalog no. 104043, ≥98%) was used to assess the outer membrane integrity of DiPGLa-H or mucin-treated E. coli K88. Briefly, log-medium E. coli K88 cells (OD600 = 0.2) were incubated with NPN (10 μM) in 5 mM HEPES buffer (pH 7.4, containing 5 mM glucose) for 30 min, and background fluorescence was recorded for subtraction. (excitation λ = 350 nm, emission λ = 420 nm) using a microplate reader (Varioskan Flash; Thermo, America). Subsequently, 100 μL of cell suspension was mixed with an equal volume of peptide solutions ranging in concentration from 4 to 64 μM in a sterile 96-well black plate. Fluorescence was recorded over time until no further increase in fluorescence was detected. Each test was performed independently, in duplicate, with three biological replicates, and results were converted to percent NPN uptake using the equation. NPN uptake (%) = (Fobs – Fbuffer)/ (Fpositive – Fbuffer) ×100%.
where Fobs is the observed fluorescence at a given peptide concentration, Fbuffer is the fluorescence of the buffer, and Fpositive is the fluorescence of NPN with microbial cells upon addition of 10 μg/mL polymyxin B (Sigma), which was used as a positive control because of its strong outer membrane-permeabilizing property. Untreated cell suspension served as the negative control.

[17] = test system: E. coli K88 inner membrane; assay: Inner membrane integrity assay (PI); type: cell-based, Escherichia coli; details: 4 µM, 16 µM and 64 µM peptide
Experimental: as §5
Inner membrane integrity assay. E. coli K88 cells were washed and resuspended in 0.01 mol l−1 of PBS (pH 7.4) to obtain an OD600 of 0.5, followed by the addition of 10 nmol l−1 of PI (Thermo Fisher Scientific, catalogue no. P1304MP) in the presence of […]. After incubation for 30 min, fluorescence was measured with the excitation wavelength at 535 nm and emission wavelength at 615 nm.

[18] = test system: Pseudomonas aeruginosa; details: cited from earlier work
Source text: as §4

[19] = test system: MRSA; details: cited from earlier work
Source text: as §4

[20] = first of two independent studies
[21] = second of two independent studies

| Substance | MBC A. baumannii ATCC19606 [1] [µM] | MIC A. baumannii ATCC19606 [1] [µM] | MBC P. aeruginosa ATCC27853 [2] [µM] | MIC P. aeruginosa ATCC27853 [2] [µM] | GMMIC Gram-negative [5] [µM] | MBC E. coli ATCC25922 [6] [µM] | MIC E. coli ATCC25922 [6] [µM] | MBC S. aureus Mu50 [7] | MIC S. aureus Mu50 [7] | MBC S. aureus ATCC29213 [8] [µM] | MIC S. aureus ATCC29213 [8] [µM] | GMMIC All [10] [µM] | GMMIC Gram-positive [11] [µM] | reduced antibacterial efficacy compared with DiPGLa-H [10] | other results |
| --- | --- | --- | --- | --- | --- | --- | --- | --- | --- | --- | --- | --- | --- | --- | --- |
| GMASKAGAIAGKIAKVALKAL-NH2 (C-terminus assumed) [PGLa] | 16 | 16 | 64 | 64 | 38.05 | > 64 | > 64 | >64 (>64) µM | >64 (>64) µM | 64 | 64 | 45.25 | 64 |  | MIC E. coli 25922 [3]: 10 to 50 µg/mL; MIC S. aureus 25923 [4]: 50 to 100 µg/mL; MIC E. coli K88 ([9]; lowest concentration inhibiting 95% of growth, MHB, 0.5-1x10^5 CFU/mL, 37°C 24 h, absorbance 492 nm, three independent experiments): 32 µM; MBC E. coli K88 ([9]; lowest concentration killing >99.9% of cells, 37°C 4 h, plating, colony count, three independent trials): 64 µM |
| GMASKAGSVLGKVAKVALKAAL-NH2 (C-terminus assumed) [PGLa-AM1] | 32 | 32 | > 64 | 64 | 53.82 | > 64 | > 64 | >64 (>64) µM | >64 (>64) µM | > 64 | > 64 | 57.02 | 64 |  | MIC S. aureus [12]: 25 µM; MIC E. coli [13]: 12.5 µM; MIC Helicobacter pylori [14]: 1 µg/mL; MIC Acinetobacter nosocomial Ab113 [15]: 128 µg/mL |
| KIAKGALKALKIAKVALKAL-NH2 (C-terminus assumed) [kiadin-2] | 4 | 4 | 8 | 4 | 4.76 | 16 | 8 | 32 (32) µM | 32 (32) µM | 32 | 32 | 8.98 | 32 | 2–8 times |  |
| KIAKVALKAL-NH2 (C-terminus assumed) [PGLa-H] | > 128 | > 128 | > 128 | > 128 | 128 | > 128 | > 128 | >128 (>128) µM | >128 (>128) µM | > 128 | > 128 | 128 | 128 |  | outer membrane permeability (NPN uptake) [16]: failed to exhibit any discernible outer membrane permeability; PI-DNA fluorescence intensity [17]: relatively constant PI-DNA fluorescence intensity; MIC E. coli ATCC25922 [3]: 23.6 µg/mL; MIC S. aureus ATCC 25923 [4]: 8.7 µg/mL |
| KIAKVALKALKIAKGALKAL-NH2 (C-terminus assumed) [kiadin-1] | 4 | 4 | 16 | 8 | 11.31 | 64 | 32 | 32 (32) µM | 32 (32) µM | 16 | 16 | 14.25 | 22.63 | 2–8 times | MIC Pseudomonas aeruginosa ATCC 25922 [18, 20]: 6 µM; MIC Pseudomonas aeruginosa ATCC 25922 [18, 21]: > 32 µg/mL; MIC MRSA [19, 20]: 3 µM; MIC MRSA [19, 21]: 16 µg/mL |
